Measurements taken from patent publication US20240400553A1, “AMINE BASED MATRIPTASE 2 INHIBITORS AND USES THEREOF” (Disc Medicine, Inc., priority 2023, published 2024).

What follows are compounds tested against T1, Human Recombinant Matriptase 2 (Homo sapiens, UniProt Q8IU80) (assay: Matriptase 2 inhibition, fluorescence based assay (Method I)). Conditions: Table A; Ki of Matriptase-2; read-out: Mat-2 Ki.
T1 construct: made in house
T1 sequence (Q8IU80 1-811): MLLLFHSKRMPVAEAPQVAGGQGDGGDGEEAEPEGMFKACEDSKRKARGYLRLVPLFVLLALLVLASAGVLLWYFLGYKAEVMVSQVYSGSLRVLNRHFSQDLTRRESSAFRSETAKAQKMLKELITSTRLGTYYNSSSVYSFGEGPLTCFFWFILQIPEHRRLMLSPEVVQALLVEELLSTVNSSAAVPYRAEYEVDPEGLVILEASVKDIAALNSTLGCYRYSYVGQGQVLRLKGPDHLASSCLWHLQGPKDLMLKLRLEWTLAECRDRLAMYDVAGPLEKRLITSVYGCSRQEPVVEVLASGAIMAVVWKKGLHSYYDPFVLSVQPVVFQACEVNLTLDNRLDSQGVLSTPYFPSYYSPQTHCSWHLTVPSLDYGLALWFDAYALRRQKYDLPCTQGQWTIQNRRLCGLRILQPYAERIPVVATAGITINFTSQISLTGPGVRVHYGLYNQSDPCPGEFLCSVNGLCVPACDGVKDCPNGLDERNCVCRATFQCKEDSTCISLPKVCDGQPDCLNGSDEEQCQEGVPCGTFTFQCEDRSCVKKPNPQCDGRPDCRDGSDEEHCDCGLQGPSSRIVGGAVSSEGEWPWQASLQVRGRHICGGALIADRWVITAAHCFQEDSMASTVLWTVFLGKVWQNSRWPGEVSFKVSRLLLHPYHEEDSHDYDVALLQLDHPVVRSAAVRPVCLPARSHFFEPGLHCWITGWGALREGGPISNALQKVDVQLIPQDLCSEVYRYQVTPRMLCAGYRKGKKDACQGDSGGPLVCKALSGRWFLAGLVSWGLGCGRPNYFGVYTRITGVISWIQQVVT
Assay type: biochemical
In short: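 Fluorogenic readout (Ex 360/Em 480 nm) taken 60 min after adding 62 μM Boc-Gln-Ala-Arg-AMC, following 30-min enzyme–compound preincubation at 25 °C. Conditions: 3.5 nM in-house enzyme, pH 7.5 Tris/NaCl/gelatin buffer, 1% DMSO; percent inhibition versus concentration fitted by variable-slope sigmoidal regression.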

SMILES | Ki
NCc1ccc2cc(C(=O)OCC3CCN(C=O)CC3)n(Cc3cc(NS(=O)(=O)Cc4ccccc4)cc4ccccc34)c2n1 [Compound 59, (1-formylpiperidin-4-yl)-methyl 6-(aminomethyl)-1-{[3-(phenylmethane-sulfonamido)naphthalen-1-yl]methyl}-1H-pyr-rolo[2,3-b]pyridine-2-carboxylate] | ≤ 100 nM
NCc1ccc2cc(C(=O)NCCN3CCOCC3)n(Cc3cc(NS(=O)(=O)Cc4ccccc4)cc4ccccc34)c2n1 [Compound 60, 6-(aminomethyl)-N-[2-(morpholin-4-yl)ethyl]-1-{[3-(phenylmethane-sulfonamido)naphthalen-1-yl]methyl}-1H-pyr-rolo[2,3-b]pyridine-2-carboxamide] | ≤ 100 nM
Cn1ccc(COC(=O)c2cc3ccc(CN)nc3n2Cc2cc(NS(=O)(=O)Cc3ccccc3)cc3ccccc23)n1 [Compound 61, (1-methyl-1H-pyrazol-3-yl)methyl 6-(amino-methyl)-1-{[3-(phenyl-methanesulfonamido)-naphthalen-1-yl]methyl}-1H-pyrrolo[2,3-b]pyr-idine-2-carboxylate] | ≤ 100 nM
NCc1ccc2cc(C(=O)O)n(Cc3cc(NS(=O)(=O)Cc4ccccc4)cc4ccccc34)c2n1 [Compound 62, 6-(aminomethyl)-1-{[3-(phenylmethanesulfon-amido)naphthalen-1-yl]-methyl}-1H-pyrrolo[2,3-b]pyridine-2-carboxylic acid] | ≤ 100 nM
NCc1ccc2cc(C(=O)OCCN3CCCCC3)n(Cc3cc(NS(=O)(=O)Cc4ccccc4)cc4ccccc34)c2n1 [Compound 65, 2-(piperidin-1-yl)ethyl 6-(aminomethyl)-1-{[3-(phenylmethanesulfon-amido)naphthalen-1-yl]-methyl}-1H-pyrrolo[2,3-b]pyridine-2-carboxylate] | ≤ 100 nM
CNC(=O)c1cc2ccc(CN)nc2n1Cc1cc(NS(=O)(=O)Cc2ccccc2)cc2ccccc12 [Compound 66] | ≤ 100 nM
CC(=O)N1CCC(COC(=O)c2cc3ccc(CN)nc3n2Cc2cc(NS(=O)(=O)Cc3ccccc3)cc3ccccc23)CC1 [Compound 67, (1-acetylpiperidin-4-yl)-methyl 6-(aminomethyl)-1-{[3-(phenylmethane-sulfonamido)naphthalen-1-yl]methyl}-1H-pyr-rolo[2,3-b]pyridine-2-carboxylate] | ≤ 100 nM
Cn1nccc1COC(=O)c1cc2ccc(CN)nc2n1Cc1cc(NS(=O)(=O)Cc2ccccc2)cc2ccccc12 [Compound 68, (1-methyl-1H-pyrazol-5-yl)methyl 6-(amino-methyl)-1-{[3-(phenyl-methanesulfonamido)-naphthalen-1-yl]meth-yl}-1H-pyrrolo[2,3-b]-pyridine-2-carboxylate] | ≤ 100 nM
NCc1ccc2cc(C(=O)OCCN3CCCC3)n(Cc3cc(NS(=O)(=O)Cc4ccccc4)cc4ccccc34)c2n1 [Compound 69, 2-(pyrrolidin-1-yl)ethyl 6-(aminomethyl)-1-{[3-(phenylmethanesulfon-amido)naphthalen-1-yl]-methyl}-1H-pyrrolo[2,3-b]pyridine-2-carboxylate] | ≤ 100 nM
CC(C)n1cncc1COC(=O)c1cc2ccc(CN)nc2n1Cc1cc(NS(=O)(=O)Cc2ccccc2)cc2ccccc12 [Compound 70, [1-(propan-2-yl)-1H-imidazol-5-yl]methyl 6-(aminomethyl)-1-{[3-(phenylmethanesulfon-amido)naphthalen-1-yl]-methyl}-1H-pyrrolo[2,3-b]pyridine-2-carboxylate] | ≤ 100 nM
CN(C)CCNC(=O)c1cc2ccc(CN)nc2n1Cc1cc(NS(=O)(=O)Cc2ccccc2)cc2ccccc12 [Compound 71, 6-(aminomethyl)-N-[2-(dimethylamino)ethyl]-1-{[3-(phenylmethane-sulfonamido)naphthalen-1-yl]methyl}-1H-pyr-rolo[2,3-b]pyridine-2-carboxamide] | ≤ 100 nM
NCc1ccc2cc(C(=O)OC[C@H]3CCCCN3)n(Cc3cc(NS(=O)(=O)Cc4ccccc4)cc4ccccc34)c2n1 [Compound 72, [(2R)-piperidin-2-yl]-methyl 6-(aminomethyl)-1-{[3-(phenylmethane-sulfonamido)naphthalen-1-yl]methyl}-1H-pyr-rolo[2,3-b]pyridine-2-carboxylate] | ≤ 100 nM
CC(C)n1ccnc1COC(=O)c1cc2ccc(CN)nc2n1Cc1cc(NS(=O)(=O)Cc2ccccc2)cc2ccccc12 [Compound 74, [1-(propan-2-yl)-1H-imidazol-2-yl]methyl 6-(aminomethyl)-1-{[3-(phenylmethanesulfon-amido)naphthalen-1-yl]-methyl}-1H-pyrrolo-[2,3-b]pyridine-2-car-boxylate] | ≤ 100 nM
COC(=O)NCCOC(=O)c1cc2ccc(CN)nc2n1Cc1cc(NS(=O)(=O)Cc2ccccc2)cc2ccccc12 [Compound 75, 2-[(methoxycarbonyl)-amino]ethyl 6-(amino-methyl)-1-{[3-(phenyl-methanesulfonamido)-naphthalen-1-yl]methyl}-1H-pyrrolo[2,3-b]pyr-idine-2-carboxylate] | ≤ 100 nM
CNCCNC(=O)c1cc2ccc(CN)nc2n1Cc1cc(NS(=O)(=O)Cc2ccccc2)cc2ccccc12 [Compound 76, 6-(aminomethyl)-N-[2-(methylamino)ethyl]-1-{[3-(phenylmethane-sulfonamido)naphthalen-1-yl]methyl}-1H-pyr-rolo[2,3-b]pyridine-2-carboxamide] | ≤ 100 nM
NCc1ccc2cc(C(=O)OCCN3CCS(=O)(=O)CC3)n(Cc3cc(NS(=O)(=O)Cc4ccccc4)cc4ccccc34)c2n1 [Compound 77, 2-(1,1-dioxo-1-thio-morpholin-4-yl)ethyl 6-(aminomethyl)-1-{[3-(phenylmethanesulfon-amido)naphthalen-1-yl]-methyl}-1H-pyrrolo[2,3-b]pyridine-2-carboxylate] | ≤ 100 nM
NCc1ccc2cc(C(=O)NCCS(N)(=O)=O)n(Cc3cc(NS(=O)(=O)Cc4ccccc4)cc4ccccc34)c2n1 [Compound 78, 6-(aminomethyl)-1-{[3-(phenylmethanesulfon-amido)naphthalen-1-yl]-methyl}-N-(2-sulfamoyl-ethyl)-1H-pyrrolo[2,3-b]pyridine-2-carboxamide] | ≤ 100 nM
NCc1ccc2cc(C(=O)OCC3CCOCC3)n(Cc3cc(NS(=O)(=O)Cc4ccccc4)cc4ccccc34)c2n1 [Compound 79, (oxan-4-yl)methyl 6-(aminomethyl)-1-{[3-(phenylmethanesulfon-amido)naphthalen-1-yl]-methyl}-1H-pyrrolo[2,3-b]pyridine-2-carboxylate] | ≤ 100 nM
CN(C)C(=O)OCCOC(=O)c1cc2ccc(CN)nc2n1Cc1cc(NS(=O)(=O)Cc2ccccc2)cc2ccccc12 [Compound 80, 2-[(dimethylcarbamoyl)-oxy]ethyl 6-(aminometh-yl)-1-{[3-phenylmethane-sulfonamido)naphthalen-1-yl]methyl}-1H-pyr-rolo[2,3-b]pyridine-2-carboxylate] | ≤ 100 nM
NCc1ccc2cc(C(=O)OCc3cccnc3)n(Cc3cc(NS(=O)(=O)Cc4ccccc4)cc4ccccc34)c2n1 [Compound 81, (pyridin-3-yl)methyl 6-(aminomethyl)-1-{[3-(phenylmethanesulfon-amido)naphthalen-1-yl]-methyl}-1H-pyrrolo[2,3-b]pyridine-2-carboxylate] | ≤ 100 nM
NCc1ccc2cc(C(=O)OCCO)n(Cc3cc(NS(=O)(=O)Cc4ccccc4)cc4ccccc34)c2n1 [Compound 82, 2-hydroxyethyl 6-(amino-methyl)-1-{[3-(phenyl-methanesulfonamido)-naphthalen-1-yl]methyl}-1H-pyrrolo[2,3-b]pyr-idine-2-carboxylate] | 100 to 500 nM
CN1CCC(CCS(=O)(=O)NC(=O)c2cc3ccc(CN)nc3n2Cc2cc(NS(=O)(=O)Cc3ccccc3)cc3ccccc23)CC1 [Compound 83, 6-(aminomethyl)-N-[2-(1-methylpiperidin-4-yl)-ethanesulfonyl]-1-{[3-(phenylmethanesulfon-amido)naphthalen-1-yl]-methyl}-1H-pyrrolo[2,3-b]pyridine-2-carboxamide] | 100 to 500 nM
NCc1ccc2cc(C(=O)OCCS(N)(=O)=O)n(Cc3cc(NS(=O)(=O)Cc4ccccc4)cc4ccccc34)c2n1 [Compound 84, 2-sulfamoylethyl 6-(aminomethyl)-1-{[3-(phenylmethanesulfon-amido)naphthalen-1-yl]-methyl}-1H-pyrrolo[2,3-b]pyridine-2-carboxylate] | 100 to 500 nM
NCc1ccc2cc(C(=O)OCc3ccccn3)n(Cc3cc(NS(=O)(=O)Cc4ccccc4)cc4ccccc34)c2n1 [Compound 85, (pyridin-2-yl)methyl 6-(aminomethyl)-1-{[3-(phenylmethanesulfon-amido)naphthalen-1-yl]-methyl}-1H-pyrrolo[2,3-b]pyridine-2-carboxylate] | 100 to 500 nM
